# PubChem BioAssay AID1963438 (Molecular Pharmacology Branch, DTP, NCI, 2024)
# Tested on: NCI-H510 multicellular tumor spheroid growth, % test/control
# Test: Anticancer human tumor NCI-H510 cell line growth inhibition [Asc];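 further: spheroids exposed to agents for 7 days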;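 on viability, T/C: 100% = DMSO vehicle control wells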
# Settings: for IC50: curve of first compound; for viability, T/C: stronger effect = lower value
# Procedure: Multicellular complex tumor spheroid response to apoptosis pathway targeting inhibitors Alrizomadlin, Pelcitoclax, and Dasminapant in combination with a variety of drugs and investigational agents in selected tumor cell lines
# The MDM2 inhibitor alrizomadlin, the Bcl-2/Bcl-xL inhibitor pelcitoclax, and the IAPs inhibitor dasminapant were evaluated both individually and in combination with standard of care and investigational anticancer small molecules within a complex spheroid model of solid tumors. . Complex spheroids include a stromal component modeled by human endothelial cells (HUVEC) and fibroblasts modeled by human mesenchymal stem cells (MSCs). The concentration ranges selected for each drug and investigational agent were based upon clinically achievable concentrations if the clinical Cmax of the agent was known.
# Compounds. The drugs and investigational agents: alrizomadlin (APG-115; NSC831270), pelcitoclax (APG-1252; NSC835773), dasminapant (APG-1387;NSC834197), TAK-243 (NSC785004), copanlisib (NSC809693), olaparib (NSC753686), talazoparib (NSC767125), cobimetinib (NSC 768068), eltanexor (KPT-8602, NSC 794443), abemaciclib (NSC 768073), sotorasib (NSC818433), adagrasib (NSC 831453), MRTX-1133 (NSC 836407), Iadademestat (ORY1001, NSC 806812), and RMC-4630 (NSC839698), were obtained from the NCI Developmental Therapeutics Program Chemical Repository. The FDA-approved anticancer drug set is available from the Developmental Therapeutics Program at https://dtp.cancer.gov/organization/dscb/obtaining/available plates.htm. […] The stock solutions were prepared in dimethyl sulfoxide (DMSO, Sigma-Aldrich, St. Louis, MO, cat. D2650) at 800-fold the tested concentration and stored at -70 degrees C prior to their use. All drugs and investigational agents were tested over a range starting from a high concentration at or near the clinical Cmax and decreasing in half-log increments. If the clinical Cmax for an agent had not been determined, the highest concentration tested was 10 microM.
# The patient-derived cancer (PDC) cell lines include five colon adenocarcinomas: 186277-243-T-J2-PDC, 616215-338-R-J1-PDC, 439559-082-T-J2-PDC, 463943-066-T-J2-PDC, and 519858-162-T-J1-PDC; three pancreatic carcinomas: 323965-272-R-J2-PDC, 521955-158-R6-J3-PDC, and 521955-158-R2-J5-PDC; two uterine sarcomas: 327498-152-R-J2-PDC and 993429-296-R-J1-PDC; two rhabdomyosarcomas: 755483-174-R-J1-PDC and 772245-204-R-J1-PDC; two soft tissue sarcomas: 126254-015-R-J1-PDC and 494315-158-R-J1-PDC; two malignant fibrous histiocytomas: 317291-083-R-J1-PDC and 596521-263-R-J1-PDC; two breast carcinomas: 171881-019-R-J1-PDC and 885512-296-R-J2-PDC; and one ovarian carcinoma: 6556581-035-R-J-PDC were obtained from the NCI PDMR, (https://pdmr.cancer.gov). The established cell lines HSSY-2 synovial sarcoma (RRID:CVCL 8719), SYO-1 synovial sarcoma (RRID:CVCL_7146), MPNST malignant peripheral neural sheath tumor were obtained from the Sloan Kettering Institute. The following established cell lines were purchased from the American Type Culture Collection (ATCC, Manassas, VA), Sor the received from the NCI repository:, PANC-1 pancreatic carcinoma (CRL-1469, RRID:CVCL_0480), OVCAR-5 ovarian carcinoma (RRID:CVCL_1628), OVCAR-8 ovarian carcinoma (RRID:CVCL_1629), , MCF-7 breast carcinoma (CRL-12584, RRID:CVCL_0031), MDA-MB-231 breast carcinoma (CRL-12532, RRID:CVCL_0062), NCI-H1876 small cell lung carcinoma (CRL-5902, RRID:CVCL_1503), NCI-H510A small cell lung carcinoma (HTB-184, RRID:CVCL_1565), NCI-H1417 (CRL-5869, RRID:CVCL_1469), and NCI-H196 small cell lung carcinoma (CRL-5823, RRID:CVCL_1509). Dr. Peter Houghton (Greehey Children's Cancer Research Institute, University of Texas Health Science Center, San Antonio, TX) provided Rh-18 rhabdomyosarcoma (RRID:CVCL_1659). Pooled donor human umbilical vein endothelial cells (HUVEC, Lonza, cat. CC-2519) and human mesenchymal stem cells (hMSC, Lonza, cat. PT-2501) were purchased from Lonza (Walkersville, MD).
# Cell Culture. […]
smiles,measurement,setting,value
CCN1CCN(Cc2ccc(Nc3ncc(F)c(-c4cc(F)c5nc(C)n(C(C)C)c5c4)n3)nc2)CC1 + CCN1C(C(=O)NC23CCC(C(=O)O)(CC2)CC3)C(c2cccc(Cl)c2F)C2(C(=O)Nc3cc(Cl)ccc32)C12CCCCC2,IC50,second compound 0.03 µM,> 1000 nM
same,IC50,second compound 0.0949 µM,> 1000 nM
same,IC50,second compound 0.3 µM,> 1000 nM
same,IC50,second compound 0.949 µM,> 1000 nM
same,IC50,second compound 3 µM,> 1000 nM
same,"viability, T/C","second compound 0.03 µM, first compound 0.00316 µM",100%
same,"viability, T/C","second compound 0.03 µM, first compound 0.01 µM",88%
same,"viability, T/C","second compound 0.03 µM, first compound 0.0316 µM",99.1%
same,"viability, T/C","second compound 0.03 µM, first compound 0.1 µM",129%
same,"viability, T/C","second compound 0.03 µM, first compound 0.316 µM",123%
same,"viability, T/C","second compound 0.03 µM, first compound 1 µM",75.7%
same,"viability, T/C","second compound 0.0949 µM, first compound 0.00316 µM",97.4%
same,"viability, T/C","second compound 0.0949 µM, first compound 0.01 µM",116%
same,"viability, T/C","second compound 0.0949 µM, first compound 0.0316 µM",121%
same,"viability, T/C","second compound 0.0949 µM, first compound 0.1 µM",110%
same,"viability, T/C","second compound 0.0949 µM, first compound 0.316 µM",105%
same,"viability, T/C","second compound 0.0949 µM, first compound 1 µM",87.5%
same,"viability, T/C","second compound 0.3 µM, first compound 0.00316 µM",119%
same,"viability, T/C","second compound 0.3 µM, first compound 0.01 µM",114%
same,"viability, T/C","second compound 0.3 µM, first compound 0.0316 µM",74.9%
same,"viability, T/C","second compound 0.3 µM, first compound 0.1 µM",86.1%
same,"viability, T/C","second compound 0.3 µM, first compound 0.316 µM",106%
same,"viability, T/C","second compound 0.3 µM, first compound 1 µM",88.7%
same,"viability, T/C","second compound 0.949 µM, first compound 0.00316 µM",105%
same,"viability, T/C","second compound 0.949 µM, first compound 0.01 µM",107%
same,"viability, T/C","second compound 0.949 µM, first compound 0.0316 µM",123%
same,"viability, T/C","second compound 0.949 µM, first compound 0.1 µM",74.5%
same,"viability, T/C","second compound 0.949 µM, first compound 0.316 µM",107%
same,"viability, T/C","second compound 0.949 µM, first compound 1 µM",106%
same,"viability, T/C","second compound 3 µM, first compound 0.00316 µM",98.2%
same,"viability, T/C","second compound 3 µM, first compound 0.01 µM",127%
same,"viability, T/C","second compound 3 µM, first compound 0.0316 µM",128%
same,"viability, T/C","second compound 3 µM, first compound 0.1 µM",76.1%
same,"viability, T/C","second compound 3 µM, first compound 0.316 µM",113%
same,"viability, T/C","second compound 3 µM, first compound 1 µM",83.1%
